From publication PMC2833271 (Neuropsychopharmacology : official publication of the …, 2009)
“Also recorded” adds a separate entry of the source. Read-outs that look alike come from different tables or passages of the source.

How the values were obtained:
brain MAO-A [1] = target: T1, brain MAO-A (Homo sapiens, UniProt P21397); test: PET imaging of [11C]clorgyline binding; format: in vivo
T1 sequence (P21397 1-527): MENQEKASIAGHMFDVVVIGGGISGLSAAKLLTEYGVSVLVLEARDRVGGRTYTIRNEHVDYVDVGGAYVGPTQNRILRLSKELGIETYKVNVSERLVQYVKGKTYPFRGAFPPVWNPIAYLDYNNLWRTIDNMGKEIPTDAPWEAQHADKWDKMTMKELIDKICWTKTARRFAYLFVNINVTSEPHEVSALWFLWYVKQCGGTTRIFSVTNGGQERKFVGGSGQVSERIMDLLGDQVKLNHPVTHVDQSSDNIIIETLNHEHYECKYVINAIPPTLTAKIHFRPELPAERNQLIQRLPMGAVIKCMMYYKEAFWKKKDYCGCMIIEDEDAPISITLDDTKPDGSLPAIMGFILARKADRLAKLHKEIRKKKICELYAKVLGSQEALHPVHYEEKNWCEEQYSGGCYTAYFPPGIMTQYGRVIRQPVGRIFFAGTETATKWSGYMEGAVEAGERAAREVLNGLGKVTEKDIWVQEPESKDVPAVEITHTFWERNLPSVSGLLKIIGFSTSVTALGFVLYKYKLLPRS

[2] = Plasma CX157 concentration and pharmacokinetics; format: in vivo, human; details: for concentration at 2 h / concentration at 5 h / concentration at 12 h / concentration at 8 h: oral; for Plasma CX157: single subject value
brain MAO-A [3] = target: T1, brain MAO-A; test: Emax model of brain MAO-A inhibition vs plasma CX157 concentration; format: in vivo
[4] = Adverse events in study subjects; format: in vivo, human; details: 15 normal men, oral CX157 20-80 mg
MAO-A = details: in human brain; ref data on file, CeNeRx Biopharma, Cary, NC; cited from earlier work
brain MAO-A [5] = target: T1, brain MAO-A; details: [11C]harmine PET; ref Bergström et al, 1997; cited from earlier work

O=S1(=O)c2ccc(F)cc2Oc2cc(OCC(F)(F)F)ccc21 [CX157, 3-fluoro-7-(2,2,2-trifluoroethoxy)phenoxathiin-10,10-dioxide]
inhibition of MAO-A (brain MAO-A [1]; 40 mg CX157, first two subjects): ~ 60%
inhibition of [11C]clorgyline binding to brain MAO-A (brain MAO-A [1]; 60 and 80 mg oral doses, 2 h after administration): 47–72%
recovery of brain MAO-A activity (brain MAO-A [1]; 24 h post drug (single dose, 40 mg)): recovered completely; also recorded: Complete recovery to baseline values
inhibition at 40 mg (brain MAO-A [1]; read-out: % MAO-A inhibition (inhibition of [11C]clorgyline binding, λk3), multi-dose 40 mg BID 7 days, n = 3, 12 h post dose): 23.1 ± 3.7%
inhibition at 40 mg (brain MAO-A [1]; read-out: % MAO-A inhibition (inhibition of [11C]clorgyline binding, λk3), multi-dose 40 mg BID, 10 h, single subject value): 27.3%
% MAO-A inhibition (inhibition of [11C]clorgyline binding, λk3) (brain MAO-A [1]; single dose 20 mg, n = 2, 2 h after CX157): 18.5 ± 10.6%
% MAO-A inhibition (inhibition of [11C]clorgyline binding, λk3) (brain MAO-A [1]; single dose 20 mg, n = 2, 5 h after CX157): 18.8 ± 6.7%
% MAO-A inhibition (inhibition of [11C]clorgyline binding, λk3) (brain MAO-A [1]; single dose 20 mg, n = 2, 12 h after CX157): 12.4 ± 10.8%
% MAO-A inhibition (inhibition of [11C]clorgyline binding, λk3) (brain MAO-A [1]; single dose 40 mg, n = 3, 2 h after CX157): 54.7 ± 8.9%
% MAO-A inhibition (inhibition of [11C]clorgyline binding, λk3) (brain MAO-A [1]; single dose 40 mg, n = 3, 12 h after CX157): 6.8 ± 14.6%
% MAO-A inhibition (inhibition of [11C]clorgyline binding, λk3) (brain MAO-A [1]; single dose 40 mg, n = 3, 24 h after CX157): −1.8 ± 0.7%
% MAO-A inhibition (inhibition of [11C]clorgyline binding, λk3) (brain MAO-A [1]; single dose 40 mg, 5 h after CX157, single subject value): 34.5%
% MAO-A inhibition (inhibition of [11C]clorgyline binding, λk3) (brain MAO-A [1]; single dose 40 mg, 8 h after CX157, single subject value): 6.5%
% MAO-A inhibition (inhibition of [11C]clorgyline binding, λk3) (brain MAO-A [1]; single dose 60 mg, n = 3, 5 h after CX157): 31.6 ± 27.4%
% MAO-A inhibition (inhibition of [11C]clorgyline binding, λk3) (brain MAO-A [1]; single dose 60 mg, n = 3, 8 h after CX157): 23.4 ± 30.0%
% MAO-A inhibition (inhibition of [11C]clorgyline binding, λk3) (brain MAO-A [1]; single dose 60 mg, n = 3, 12 h after CX157): 17.6 ± 17.9%
% MAO-A inhibition (inhibition of [11C]clorgyline binding, λk3) (brain MAO-A [1]; single dose 80 mg, n = 4, 2 h after CX157): 72.3 ± 8.7%
% MAO-A inhibition (inhibition of [11C]clorgyline binding, λk3) (brain MAO-A [1]; single dose 80 mg, n = 4, 5 h after CX157): 48.6 ± 12.1%
% MAO-A inhibition (inhibition of [11C]clorgyline binding, λk3) (brain MAO-A [1]; single dose 80 mg, n = 4, 8 h after CX157): 30.4 ± 8.9%
% MAO-A inhibition (inhibition of [11C]clorgyline binding, λk3) (brain MAO-A [1]; single dose 80 mg, 12 h after CX157, single subject value): 43.1%
peak inhibition of [11C]clorgyline binding (brain MAO-A [1]; single doses, all dose groups except 20 mg, 2-h time point): 47–72%
concentration at 2 h ([2]; male, human, plasma, 20 mg, Average plasma CX157, single dose 20 mg, n = 2, 2 h): 18.5 ± 3.3 ng/mL
concentration at 5 h ([2]; male, human, plasma, 20 mg, Average plasma CX157, single dose 20 mg, n = 2, 5 h): 18.8 ± 1.1 ng/mL
concentration at 12 h ([2]; male, human, plasma, 20 mg, Average plasma CX157, single dose 20 mg, n = 2, 12 h): 12.4 ± 0.7 ng/mL
concentration at 2 h ([2]; male, human, plasma, 40 mg, Average plasma CX157, multi-dose 40 mg BID, n = 3, 2 h): 48.3 ± 11.3 ng/mL
concentration at 5 h ([2]; male, human, plasma, 40 mg, Average plasma CX157, multi-dose 40 mg BID, n = 3, 5 h): 34.1 ± 5.8 ng/mL
concentration at 8 h ([2]; male, human, plasma, 40 mg, Average plasma CX157, multi-dose 40 mg BID, n = 3, 8 h): 32.2 ± 4.4 ng/mL
concentration at 12 h ([2]; male, human, plasma, 40 mg, Average plasma CX157, multi-dose 40 mg BID, n = 3, 12 h): 23.1 ± 1.4 ng/mL
concentration at 2 h ([2]; male, human, plasma, 40 mg, Average plasma CX157, single dose 40 mg, n = 3, 2 h): 54.7 ± 18.5 ng/mL
concentration at 12 h ([2]; male, human, plasma, 40 mg, Average plasma CX157, single dose 40 mg, n = 3, 12 h): 6.8 ± 1.5 ng/mL
concentration at 2 h ([2]; male, human, plasma, 60 mg, Average plasma CX157, single dose 60 mg, n = 3, 2 h): 46.8 ± 84.4 ng/mL
concentration at 5 h ([2]; male, human, plasma, 60 mg, Average plasma CX157, single dose 60 mg, n = 3, 5 h): 31.6 ± 37.4 ng/mL
concentration at 8 h ([2]; male, human, plasma, 60 mg, Average plasma CX157, single dose 60 mg, n = 3, 8 h): 23.4 ± 8 ng/mL
concentration at 12 h ([2]; male, human, plasma, 60 mg, Average plasma CX157, single dose 60 mg, n = 3, 12 h): 17.6 ± 6.6 ng/mL
concentration at 2 h ([2]; male, human, plasma, 80 mg, Average plasma CX157, single dose 80 mg, n = 4, 2 h): 72.3 ± 58.8 ng/mL
concentration at 5 h ([2]; male, human, plasma, 80 mg, Average plasma CX157, single dose 80 mg, n = 4, 5 h): 48.6 ± 25 ng/mL
concentration at 8 h ([2]; male, human, plasma, 80 mg, Average plasma CX157, single dose 80 mg, n = 4, 8 h): 30.4 ± 5.2 ng/mL
half-life ([2]; male, human, plasma, po): 6 ± 3.4 h
Plasma CX157 range ([2]; multi-dose 40 mg BID, n = 3, 2 h): 24.5 to 45 ng/mL
Plasma CX157 range ([2]; multi-dose 40 mg BID, n = 3, 5 h): 13.1 to 24.7 ng/mL
Plasma CX157 range ([2]; multi-dose 40 mg BID, n = 3, 8 h): 10.8 to 19.5 ng/mL
Plasma CX157 range ([2]; multi-dose 40 mg BID, n = 3, 12 h): 9 to 11 ng/mL
Plasma CX157 ([2]; multi-dose 40 mg BID, 10 h): 6.9 ng/mL
Plasma CX157 range ([2]; single dose 20 mg, n = 2, 2 h): 3.8 to 8.1 ng/mL
Plasma CX157 range ([2]; single dose 20 mg, n = 2, 5 h): 1.9 to 3.4 ng/mL
Plasma CX157 range ([2]; single dose 20 mg, n = 2, 12 h): 0.6 to 1.6 ng/mL
Plasma CX157 range ([2]; single dose 40 mg, n = 3, 2 h): 18.4 to 55.1 ng/mL
Plasma CX157 range ([2]; single dose 40 mg, n = 3, 12 h): 0.9 to 3.9 ng/mL
Average plasma CX157 ([2]; single dose 40 mg, n = 3, 24 h): 2.8 ± 1.3 ng/mL
Plasma CX157 range ([2]; single dose 40 mg, n = 3, 24 h): 1.8 to 3.7 ng/mL
Plasma CX157 ([2]; single dose 40 mg, 5 h): 8.4 ng/mL
Plasma CX157 ([2]; single dose 40 mg, 8 h): 1.8 ng/mL
Plasma CX157 range ([2]; single dose 60 mg, n = 3, 2 h): 7.6 to 158 ng/mL
Plasma CX157 range ([2]; single dose 60 mg, n = 3, 5 h): 3.6 to 67.3 ng/mL
Plasma CX157 range ([2]; single dose 60 mg, n = 3, 8 h): 3.4 to 14.7 ng/mL
Plasma CX157 range ([2]; single dose 60 mg, n = 3, 12 h): 1.8 to 11.1 ng/mL
Plasma CX157 range ([2]; single dose 80 mg, n = 4, 2 h): 70.7 to 183 ng/mL
Plasma CX157 range ([2]; single dose 80 mg, n = 4, 5 h): 13.5 to 70.2 ng/mL
Plasma CX157 range ([2]; single dose 80 mg, n = 4, 8 h): 5.7 to 15.4 ng/mL
Plasma CX157 ([2]; single dose 80 mg, 12 h): 16.6 ng/mL
EC50 (brain MAO-A [3]): 55.4 nM
n (exponent of sigmoid Emax model) (brain MAO-A [3]; Emax model fit, all subjects, doses and time points): 1.0
Emax (brain MAO-A [3]; read-out: Emax (maximum inhibiting response)): 80.7%
overall incidence of AEs [4]: 13.3%
serious adverse events or deaths [4]: No serious adverse events (AEs) or deaths occurred
MAO-A inhibiting activity (MAO-A): 3.3 nM

CCS(=O)(=O)Oc1ccc2c(C)c(C)c(=O)oc2c1 [esuprone]
correlation between plasma drug levels and brain MAO-A inhibition (brain MAO-A [5]): no correlation observed
